Source: patent US20150231149A1, “SPERM FUNCTION/ACTIVITY” (University of Dundee, priority 2011, published 2015)
Counter-ions that a name gives are not always drawn.

What was measured:
[1] = tested on: poor sperm motility population; experiment: Sperm penetration assay in 1% methyl cellulose; type: cell-based, human; conditions: PDEi 100 μM, 20 minutes, scored at 1 cm distance, n=6 (FIG. 4)
Description: Methyl cellulose (1% concentration) was used to mimic cervical mucus viscosity and act as a sperm function test (Ivic et al., 2002). Sperm cells were previously treated with PDEi as described above. Glass tubes (5 cm×0.8 cm×2 mm; Vitrocom, NJ, USA) were loaded with methyl cellulose by capillary action (4,000 Sigma M-) prepared in NCM and one extremity was sealed with Cristaseal™ (Hawksley, Sussex, UK). The tubes was incubated with the sperm cells at 37° C. for 1 h 15 min, then the other extremity of the tube was sealed and the number of sperm cells scored at 1 cm and 2 cm using the CASA equipped with a 20× objective magnification. The microscope was adjusted to get the right focus manually at all planes to get the sum of the sperm migrated at this distance. The results are expressed as a penetration index calculated as the number of spermatozoa observed at the site of counting with treatment/the number of spermatozoa without treatment. The speed of sperm population at the migration distance was also analyzed.

human sperm motility = experiment: Sperm motility assessment by CASA after PDEi treatment (screening of 43 PDEi); type: cell-based; conditions: for Effect on Sperm Motility: Mild / Effect on Sperm Motility: Strong: X or (X) marks the class, PDEi tested blinded at 1, 10 and 100 μM, 20 min at 37° C., CASA
Description: Almost all phosphodiesterase inhibitors (PDEi) were purchased from Tocris Bioscience (Bristol, UK) and the other inhibitors from Sigma-Aldrich (Dorset, UK) or Santa Cruz Biotechnology (Heidelberg, Germany) by the Drug Discovery Unit (DDU) at the College Life Sciences (University of Dundee, UK) as shown in Table 1. The DDU coded the PDEi upon arrival and the coded samples were tested for sperm function with a primary focus on sperm motility. All 43 PDEi were analyzed blinded with three independent times for quantitative sperm motility using three different final concentrations (1, 10 and 100 μM).
All chemicals were purchased from Sigma-Aldrich. Two different media were used 1-medium not supporting sperm capacitation NCM: 1.8 mM CaCl2, 5.4 mM KCl, 0.8 mM MgSO4.7H2O, 116.3 mM NaCl, 1.0 mM NaH2PO4, 5.55 mM D-glucose, 2.73 mM sodium pyruvate, 41.75 mM sodium lactate, 25 mM HEPES and 2-supporting capacitation CM: 1.8 mM CaCl2, 5.4 mM KCl, 0.8 mM MgSO4.7H2O, 116.3 mM NaCl, 1.0 mM NaH2PO4, 5.55 mM D-glucose, 2.73 mM sodium pyruvate, 25 mM sodium lactate, 26 mM sodium bicarbonate. Semen samples were obtained from healthy donors (normozoospermic) and samples were produced by masturbation into a sterile plastic container after 2-3 days of sexual abstinence. Two different sperm populations were isolated from the semen using a 40-80% discontinuous density gradient procedure. Briefly, 1 ml of semen was loaded after 30 min of liquefaction at 37° C. on the top of a colloidal silica suspension (Pure Sperm™, Nidacon, Mölndal, Sweden) made of 80% and 40% layered (2 ml each). The density gradient was centrifuged at 300×g for 20 min at room temperature. The motile population was found at the bottom of the 80% fraction and the poor motility population was recovered at the interface of 40-80%, respectively called 80% and 40% fraction. Both fractions were washed using a NCM, cells were isolated by a centrifugation for 5 min at 500×g and the sperm pellet was rediluted using a NCM or CM at ˜20-25×10^6 cells/ml. Sperm cells from 3-4 different donors were pooled together after sperm preparation in order to obtain enough cells to screen 4-5 PDEi at the same time and additionally to reduced the variability. The first screening was performed with a NCM because it is the conditions normally used in clinic for intrauterine insemination (IUI). Accordingly, NCM is recommended to prevent capacitation before IUI (Björndahl et al., 2010)
Following isolation, sperm were mixed with DMSO (vehicle; 1% final concentration) or PDEi [all inhibitors were reconstituted into 1% DMSO]. Sperm cells were incubated for 20 min at 37° C. and the sperm motility was evaluated by using a Computer-Assisted-Sperm-Analysis (CASA, Ceros system [version 12]; Hamilton Thorne, Beverly, Mass.) and 4 chamber slides […] (Vitrolife, Sweden). Sperm motility was evaluated from 4 samples per treatment and at least 2,000 sperm cells were analyzed in total (see below). The setting of the CASA used was that established by the manufacturer for human spermatozoa.

Structure (SMILES): COc1ccc(Cc2nccc3cc(OC)c(OC)cc23)cc1OC [Papaverine]
- enhancement of sperm motility in a viscous solution (sperm penetration assay) [1]: best PDEI's to enhance sperm motility in a viscous solution
- effect upon sperm motility (human sperm motility): greater than expected effect upon sperm motility

Structure (SMILES): CCC1C(C)=NN=C(c2ccc(OC)c(OC)c2)c2cc(OC)c(OC)cc21 (centres unmarked) [Tofisopam, 1-(3,4-dimethoxyphenyl)-5-ethyl-7,8-dimethoxy-4-methyl-5H-2,3-benzodiazepine]
- enhancement of sperm motility in a viscous solution (sperm penetration assay) [1]: best PDEI's to enhance sperm motility in a viscous solution
- effect upon sperm motility (human sperm motility): greater than expected effect upon sperm motility

Structure (SMILES): Cc1ccc([N+](=O)[O-])cc1S(=O)(=O)N(C)C [BRL 50481]
- Effect on Sperm Motility: Mild (human sperm motility): (X)

Structure (SMILES): CN(C(=O)CCCOc1ccc2[nH]c(=O)ccc2c1)C1CCCCC1 [Cilostamide]
- Effect on Sperm Motility: Strong (human sperm motility): (X)

Structure (SMILES): CCCCCC[C@@H]([C@@H](C)O)n1cnc2c(N)ncnc21.Cl [EHNA hydrochloride]
- Effect on Sperm Motility: Mild (human sperm motility): (X)

Structure (SMILES): Cl.Cl.Nc1nc(-c2ccc(Cl)c(Cl)c2)c(-c2ccncc2)s1 [CGH 2466 dihydrochloride]
- Effect on Sperm Motility: Mild (human sperm motility): (X)

Structure (SMILES): CC(C)C(=O)c1c(C(C)C)nn2ccccc12 [Ibudilast, 2-methyl-1-(2-propan-2-ylpyrazolo[1,5-a]pyridin-3-yl)propan-1-one]
- enhancement of sperm motility in a viscous solution (sperm penetration assay) [1]: best PDEI's to enhance sperm motility in a viscous solution

Structure (SMILES): COc1cc2c(cc1OC)-c1c/c(=N\c3c(C)cc(C)cc3C)n(C)c(=O)n1CC2 [Trequinsin hydrochloride]
- Effect on Sperm Motility: Strong (human sperm motility): (X)

Structure (SMILES): CCOC(=O)C1=C[C@]2(CC)CCCN3CCc4c(n1c1ccccc41)[C@@H]32 [Vinpocetine]
- Effect on Sperm Motility: Mild (human sperm motility): (X)
